ChEMBL document CHEMBL5055661, “Cell-Based Drug Discovery: Identification and Optimization of Small Molecules that Reduce c-MYC Protein Levels in Cells” (J Med Chem, 2021)
Activity calls are given as the source filed them. The rule behind the calls is not given here.

Tests used:
[1] = Reduction in cMyc expression in human COLO 320HSR cells incubated for 24 hrs by HTRF assay; type: functional, cell-based
[2] = Permeability of the compound across artificial membrane by AMP assay; type: ADME; settings: PAMPA; read-out: permeability
[3] = Clearance in CD1 mouse at 0.49 mg/kg, iv by LC-MS/MS analysis; type: ADME, organism-based; settings: in vivo
[4] = Half life in CD1 mouse at 0.49 mg/kg, iv by LC-MS/MS analysis; type: ADME, organism-based; settings: in vivo
[5] = Volume of distribution at steady state in CD1 mouse at 0.49 mg/kg, iv by LC-MS/MS analysis; type: ADME, organism-based; settings: in vivo, read-out: Vdss
[6] = AUC (0 to inf) in CD1 mouse at 5.1 mg/kg, po by LC-MS/MS analysis; type: ADME, organism-based; parameters: time infinity, dose 5.1 mg/kg, route po; settings: in vivo
[7] = Oral bioavailability in CD1 mouse at 5.1 mg/kg by LC-MS/MS analysis; type: ADME, organism-based; settings: in vivo
[8] = Plasma protein binding in CD1 mouse at 5.1 mg/kg, po by LC-MS/MS analysis; type: ADME, organism-based; settings: read-out: PPB
[9] = Clearance in Han Wistar rat at 1 mg/kg, iv by LC-MS/MS analysis; type: ADME, organism-based; settings: in vivo
[10] = Half life in Han Wistar rat at 1 mg/kg, iv by LC-MS/MS analysis; type: ADME, organism-based; settings: in vivo
[11] = Volume of distribution at steady state in Han Wistar rat at 1 mg/kg, iv by LC-MS/MS analysis; type: ADME, organism-based; settings: in vivo, read-out: Vdss
[12] = AUC (0 to inf) in Han Wistar rat at 2.1 mg/kg, po by LC-MS/MS analysis; type: ADME, organism-based; parameters: time infinity, dose 2.1 mg/kg, route po; settings: in vivo
[13] = Oral bioavailability in Han Wistar rat at 2.1 mg/kg by LC-MS/MS analysis; type: ADME, organism-based; settings: in vivo
[14] = Plasma protein binding in Han Wistar rat at 2.1 mg/kg, po by LC-MS/MS analysis; type: ADME, organism-based; settings: read-out: PPB
DOHH-2 [15] = experiment: Decrease in c-MYC protein level in human DOHH-2 cells incubated for 6 hrs by Western blot analysis; type: functional, cell-based
Burkitts lymphoma cell = experiment: Growth inhibition of MYC-translocated human Burkitts lymphoma cells measured after 6 days by CellTiterGlo-assay; type: functional; settings: time 6.0 day
DOHH-2 [16] = experiment: Reduction in MYC mRNA level in po dosed mouse xenografted with human DOHH-2 cells by qRT-PCR analysis; type: functional, organism-based; settings: dose 15-100 mg/kg
DOHH-2 [17] = experiment: Anticancer activity against human DOHH-2 cells assessed as tumor growth inhibition at 30 mg/kg, po qd measured after 21 days; type: functional; settings: DOHH-2, 504 h, time 21 day, read-out: TGI
DOHH-2 [18] = experiment: Anticancer activity against human DOHH-2 cells assessed as tumor growth inhibition at 45 mg/kg, po qd measured after 21 days; type: functional; settings: DOHH-2, 504 h, time 21 day, read-out: TGI
DOHH-2 [19] = experiment: Anticancer activity against human DOHH-2 cells assessed as tumor growth inhibition at 30 mg/kg, po qd measured after 28 days; type: functional; settings: DOHH-2, 672 h, time 28 day, read-out: TGI
DOHH-2 [20] = experiment: Anticancer activity against human DOHH-2 cells assessed as reduction in MYC mRNA expression in tumor at 30 mg/kg, po qd measured after 28 days by qRT-PCR analysis; type: functional, organism-based; settings: time 28.0 day
Mus musculus = experiment: Toxicity in mouse assessed as decrease in body weight at 30 mg/kg, po qd measured after 28 days; type: organism-based; settings: in vivo, 672 h, time 28 day
[21] = Clearance in CD1 mouse at 0.5 mg/kg, iv by LC-MS/MS analysis; type: ADME, organism-based; settings: in vivo
[22] = Half life in CD1 mouse at 0.5 mg/kg, iv by LC-MS/MS analysis; type: ADME, organism-based; settings: in vivo
[23] = Volume of distribution at steady state in CD1 mouse at 0.5 mg/kg, iv by LC-MS/MS analysis; type: ADME, organism-based; settings: in vivo, read-out: Vdss

## CCNC(=O)c1cc(OC)c2c(c1)nc(-c1ccc(N3[C@@H](C)CC[C@@H]3C)nc1)n2C[C@@H]1CN(C)CCO1
[1]
  EC50: 79.4 nM
[2]
  Papp: 20.5 ×10⁻⁶ cm/s
[3]
  clearance: 25 mL/min/kg
[4]
  half-life: 0.75 h
[5]
  Vd: 0.73 L/kg
[6]
  AUC(0-inf): 1720 ng·h/mL
[7]
  bioavailability: 35%
[8]
  fraction unbound: 0.01
[9]
  clearance: 22 mL/min/kg
[10]
  half-life: 3.6 h
[11]
  Vd: 2.6 L/kg
[12]
  AUC(0-inf): 669 ng·h/mL
[13]
  bioavailability: 40%
[14]
  fraction unbound: 0.09
DOHH-2 [15]
  Activity: Active
Burkitts lymphoma cell
  growth inhibition (GI): Active
DOHH-2 [16]
  Activity: Active
DOHH-2 [17]
  inhibition in vivo at 30 mg/kg: 58%
DOHH-2 [18]
  inhibition in vivo at 45 mg/kg: 89%
DOHH-2 [19]
  inhibition in vivo at 30 mg/kg: 82%
DOHH-2 [20]
  Activity: Active
Mus musculus
  Activity: Non-Toxic
[21]
  clearance: 26 mL/min/kg
[22]
  half-life: 1.9 h
[23]
  Vd: 3.4 L/kg
